{"source": "patent US20240408167A1", "about": "“COMPOSITION FOR TREATING OCULAR DISEASES CONTAINING PEPTIDE” (Encuragen Inc., priority 2023, published 2024)", "key": {"[1]": {"tested_on": "mouse experimental dry eye (EDE) model", "experiment": "Corneal fluorescein staining (CFS) score, EDE mouse model", "format": "in vivo", "procedure": "To confirm the pharmacological effect and appropriate dosage, a pilot study was first conducted with the mice. In addition, a rabbit DED (Dry Eye Disease) model with a large exposed facial area was evaluated in comparison with a mouse model. In the mouse experimental dry eye (EDE) model, scopolamine hydrobromide (Sigma-Aldrich. St. Louis, MO, USA) was subcutaneously injected three times a day (9 a.m., 1:30 p.m., 6 p.m.) in a room exposed to ventilation with an ambient humidity of less than 40% at 25±2° C. to induce DED.\nThe mice were randomly divided into five groups: (1) EDE (experimental dry eye) control mice without eye drops administration, (2) EDE mice treated with a vehicle (phosphate-buffered saline), (3) EDE mice treated with 0.001% (PEG)-BHD1028 (4) EDE mice treated with 0.01% (PEG)-BHD1028, and (5) EDE mice treated with 0.1% (PEG)-BHD1028. All the treatment groups received 2 μL of eye drops three times a day.\nThe subjects were evaluated by corneal staining, and the abnormal findings of the eyelids, cornea, and conjunctiva were recorded. After dropping 1 μL of the 1% fluorescent dye solution and washing with saline solution, and the cornea was observed under a slit-lamp microscope and scored to evaluate the degree of epithelial damage (degree of fluorescent staining).\nThe clinical severity of the cornea was evaluated using a corneal fluorescein staining (CFS) method, which is widely used to detect foreign substances and corneal surface damage. A higher CFS score indicates more severe corneal epitheliopathy."}, "rabbit DED model": {"tested_on": "rabbit DED model", "experiment": "Tear film break-up time (TBUT), rabbit DED model", "format": "in vivo", "text": "The rabbit DED model was induced by locally administrating 0.1% benzalkoniumchloride (BAC) drops (Sigma, St. Louis, MO, USA) twice a day (8 a.m. and 4 p.m.). Before the BAC treatment, the control group (baseline, naive) underwent standard dry eye clinical tests such as the Schirmer tear test (STT), TBUT, and corneal staining score (CSS) test. […] The test substance was locally applied bis in die (BID) to both eyes.\nTBUT is the time elapsed between the last blink and the first appearance of fluorescein decomposition, and it is an indicator of tear film stability. […] The measurement was repeated three times to obtain an average value.\nTear film instability is an important pathological characteristic of DED and the most common indicator of tear quality."}, "[2]": {"tested_on": "inflammatory cells infiltrated into the stromal layer", "experiment": "Immune cell counts by H&E staining, EDE rabbit model", "format": "in vivo", "conditions": "10 days after the treatment", "text": "The extracted eyes were washed with phosphate-buffered saline (PBS), fixed in the modified Davidson's solution, and embedded in paraffin (Histocore Arcadia, Leica, Wetzlar, Germany). Afterwards, paraffin blocks were sliced into sections of a ˜6 μm thickness, mounted on microscope slides (HistoCore AUTOCUT, Leica, Germany), air dried, and stained with hematoxylin-eosin. The stained tissue slides were imaged, and data were obtained using an optical microscope/digital slide scanner (Axio Scan.Z1, Zeiss, Oberkochen, Germany). Image measurement was performed using ZEN (Zeiss, Germany) and ImageJ (NIH, Bethesda, […], USA) software programs.\nThe DED inflammatory pathway also includes the infiltration of differentiated (antigen-specific) T cells into the cornea, conjunctiva, and lacrimal gland. To evaluate the anti-inflammatory effect of (PEG)-BHD1028 in the EDE rabbit model, the number of inflammatory cells infiltrated into the stromal layer was measured by H&E staining 10 days after the treatment."}, "[3]": {"experiment": "Viscosity of eye drops by rotational rheometer", "format": "physicochemical", "conditions": "shear rate 100 (1/s)", "text": "Based on the above information, sodium hyaluronate was set as the viscosity reagent."}, "[4]": {"experiment": "Osmotic pressure of trehalose-only formulations", "format": "physicochemical", "conditions": "trehalose-only formulation", "procedure": "The osmotic pressure of the trehalose-only formulations according to the (PEG)-BHD1028 content (see Table 5) and the osmotic pressure of the trehalose-mannitol composite formulations according to the (PEG)-BHD1028 content (see Table 6) were measured, and reflecting the experimental results, the osmolarity including the 0.5% (PEG)-BHD1028 concentration was adjusted to about 300 mOsm/kg."}, "[5]": {"experiment": "Stability of eye drop formulations stored at 40° C., RP-HPLC", "format": "physicochemical", "procedure": "Eye drops using (PEG)-BHD1028 were prepared by setting eye characteristics, pH, osmolarity, and viscosity as important parameters. To adjust the above parameters, various reagents and substances were added to the test formulation, which was stored at 40° C. to confirm the stability of the formulation. In addition, the reagents used in the target preparation were mainly determined by considering the stability of the drug and the suitability of the manufacturing process. The stability of the formulation was determined based on the RP-HPLC analysis data. The shelf life was set as the period before a single impurity reached 1.0 area %, reflecting the mean kinetic temperature (MKT).\nThe shelf life was calculated based on the stability data reflecting the mean kinetic temperature (MKT). […] Based on this calculation, the lifespan was calculated by multiplying the number of days immediately before the area % of a single impurity reached 1.0% by a factor of 5. The target shelf life was set at 6 months or longer at 25° C., and the stability of the trehalose-only formulation is expected to have a shelf life of about 7 months."}}, "note": "“And” between values parts separate entries of the source, which are not always exact repeats. Identical values can stand only once.", "data": [{"substance": "NH2-Tyr-Tyr-Phe-Ala-Tyr-His-Pro-Asn-Ile-Pro-Gly-Leu-Tyr-Tyr-Phe-COOH (H-YYFAYHPNIPGLYYF-OH; also: PEGylated, site not given here (mPEG), acetate salt) [(PEG)-BHD1028]", "values": [{"measurement": "CFS", "setting": "[1]; 0.001%, Day 5", "result": "9.875 ± 1.808", "unit": "score"}, {"measurement": "CFS", "setting": "[1]; 0.001%, Day 10", "result": "11.000 ± 1.927", "unit": "score"}, {"measurement": "CFS", "setting": "[1]; 0.01%, Day 5", "result": "8.625 ± 1.598", "unit": "score"}, {"measurement": "CFS", "setting": "[1]; 0.01%, Day 10", "result": "7.625 ± 1.598", "unit": "score"}, {"measurement": "CFS", "setting": "[1]; 0.1%, Day 5", "result": "8.125 ± 1.553", "unit": "score"}, {"measurement": "CFS", "setting": "[1]; 0.1%, Day 10", "result": "8.375 ± 1.302", "unit": "score"}, {"measurement": "TBUT", "setting": "rabbit DED model; rabbit DED, 0.1% BID, Day 5", "result": "10.64 ± 0.99", "unit": "s"}, {"measurement": "TBUT", "setting": "rabbit DED model; rabbit DED, 0.1% BID, Day 10", "result": "17.88 ± 1.91", "unit": "s"}, {"measurement": "TBUT", "setting": "rabbit DED model; rabbit DED, 0.2% BID, Day 5", "result": "15.68 ± 1.58", "unit": "s"}, {"measurement": "TBUT", "setting": "rabbit DED model; rabbit DED, 0.2% BID, Day 10", "result": "17.72 ± 1.74", "unit": "s"}, {"measurement": "TBUT", "setting": "rabbit DED model; rabbit DED, 0.4% BID, Day 5", "result": "19.88 ± 1.42", "unit": "s"}, {"measurement": "TBUT", "setting": "rabbit DED model; rabbit DED, 0.4% BID, Day 10", "result": "22.71 ± 1.87", "unit": "s"}, {"measurement": "TBUT", "setting": "rabbit DED model; rabbit, 0.1% group, Baseline (before BAC treatment)", "result": "49.67 ± 3.17", "unit": "s"}, {"measurement": "TBUT", "setting": "rabbit DED model; rabbit, 0.1% group, Day 0 (EDE), before treatment", "result": "8.50 ± 1.0", "unit": "s"}, {"measurement": "TBUT", "setting": "rabbit DED model; rabbit, 0.2% group, Baseline (before BAC treatment)", "result": "49.83 ± 2.10", "unit": "s"}, {"measurement": "TBUT", "setting": "rabbit DED model; rabbit, 0.2% group, Day 0 (EDE), before treatment", "result": "8.89 ± 1.34", "unit": "s"}, {"measurement": "TBUT", "setting": "rabbit DED model; rabbit, 0.4% group, Baseline (before BAC treatment)", "result": "53.00 ± 2.29", "unit": "s"}, {"measurement": "TBUT", "setting": "rabbit DED model; rabbit, 0.4% group, Day 0 (EDE), before treatment", "result": "8.22 ± 1.16", "unit": "s"}, {"measurement": "immune cell counts in the corneal stroma", "setting": "[2]; 0.1%", "result": "399.39±22.22"}, {"measurement": "number of immune cells infiltrated into the conjunctiva", "setting": "[2]; 0.1%", "result": "624.94±29.29"}, {"measurement": "immune cell counts in the corneal stroma", "setting": "[2]; 0.2%", "result": "349.89±17.18"}, {"measurement": "number of immune cells infiltrated into the conjunctiva", "setting": "[2]; 0.2%", "result": "472.41±39.06"}, {"measurement": "immune cell counts in the corneal stroma", "setting": "[2]; 0.4%", "result": "305.06±13.88"}, {"measurement": "number of immune cells infiltrated into the conjunctiva", "setting": "[2]; 0.4%", "result": "427.22±29.29"}, {"measurement": "viscosity, Test result", "setting": "[3]; concentration 0.5%", "result": 0.009, "unit": "Pa · S"}, {"measurement": "viscosity, Test result", "setting": "[3]; concentration 1.5%", "result": 0.010, "unit": "Pa · S"}, {"measurement": "viscosity, Test result", "setting": "[3]; concentration 4.5%", "result": 0.014, "unit": "Pa · S"}, {"measurement": "osmotic pressure, Mean", "setting": "[4]; 0.5%", "result": 300.33, "unit": "mOsm/kg"}, {"measurement": "osmotic pressure, single measurements #1-#3", "setting": "[4]; 0.5%", "result": "299 mOsm/kg and 301 mOsm/kg"}, {"measurement": "osmotic pressure, Mean", "setting": "[4]; 1.5%", "result": 308.67, "unit": "mOsm/kg"}, {"measurement": "osmotic pressure, single measurements #1-#3", "setting": "[4]; 1.5%", "result": "310 mOsm/kg and 309 mOsm/kg and 307 mOsm/kg"}, {"measurement": "osmotic pressure, Mean", "setting": "[4]; 4.5%", "result": 335.00, "unit": "mOsm/kg"}, {"measurement": "osmotic pressure, single measurements #1-#3", "setting": "[4]; 4.5%", "result": 335, "unit": "mOsm/kg"}, {"measurement": "formulation stability", "setting": "[5]; eye drops with sodium EDTA (0.5%), 40° C. for 25 days", "result": "stability was maintained"}, {"measurement": "formulation stability (impurities)", "setting": "[5]; eye drops with sodium bisulfate (0.03%), Day 7 at 40° C.", "result": "impurities rapidly increased"}, {"measurement": "impurities", "setting": "[5]; eye drops with sodium hyaluronate 0.1%, 40° C. for 37 days, all impurities", "result": "less than 1.0 area %"}, {"measurement": "formulation stability and pH, water versus PBS as diluent", "setting": "[5]; eye drops, between the two formulations", "result": "no significant difference in stability data and pH"}, {"measurement": "formulation stability", "setting": "[5]; formulations including PEG (PEG400, PEG5000, PEG3350) as osmotic reagent", "result": "considerably decomposed"}, {"measurement": "formulation stability", "setting": "[5]; formulations including salts such as KCl and NaCl, Day 6 at 40° C.", "result": "considerably decomposed"}, {"measurement": "formulation stability", "setting": "[5]; mannitol, trehalose, or a combination of mannitol and trehalose as osmotic reagent", "result": "stable"}]}]}
